Data set [1] can be described thus: A2B permeability (Papp) in MDCK-MDR1 cell monolayers. The format is in vitro ADME. More on the design: dose or concentration left out as unconfirmed. As to conditions: dog; MDCK-MDR1 monolayer, A-B direction, HBSS pH 7.4, 60 min, 37° C. As for the experimental part: (§1) MDCK-MDR1 cells obtained from the NIH (Rockville, MD, USA) are used between passage numbers 6-30. Cells are seeded onto Millipore Multiscreen Transwell plates at 3.4×10^5 cells/cm2. The cells are cultured in DMEM and media is changed on day 3. On day 4 the permeability study is performed. Cell culture and assay incubations are carried out at 37° C. in an atmosphere of 5% CO2 with a relative humidity of 95%. On the day of the assay, the monolayers are prepared by rinsing both apical and basolateral surfaces twice with Hanks Balanced Salt Solution (HBSS) at the desired pH warmed to 37° C. Cells are then incubated with HBSS at the desired pH in both apical and basolateral compartments for 40 min to stabilise physiological parameters.
(§2) The dosing solutions are prepared by diluting test compound with assay buffer to give a final test compound concentration of […] (final DMSO concentration of 1% v/v). The fluorescent integrity marker lucifer yellow is also included in the dosing solution. […]
(§3) Test compound permeability is assessed in duplicate. […]
(§4) Test and control compounds are quantified by LC-MS/MS cassette analysis using a 7-point calibration with appropriate dilution of the samples. […] The starting concentration (CO) is determined from the dosing solution and the experimental recovery calculated from CO and both apical and basolateral compartment concentrations.
(§5) The integrity of the monolayer throughout the experiment is checked by monitoring lucifer yellow permeation using fluorimetric analysis. […] If a lucifer yellow Papp value is above a pre-defined threshold in one well, but the derived Papp result for test compound or marker compound in that well is qualitatively similar to that determined in the remaining replicate well (within the lucifer yellow threshold) then, based upon the scientific judgement of the responsible scientist, the cell monolayer may be considered acceptable. […] If this re-occurs upon repeat in both wells then toxicity or inherent fluorescence of the test compound is assumed. […]

In the next data set the test system is MDCK-MDR1 cells. The description is as above. The format is in vitro ADME. More on the design: dose or concentration left out as unconfirmed. Conditions: MDCK-MDR1 monolayer, A-B direction, HBSS pH 7.4, 60 min, 37° C. The procedure:
as §1, §2, §3, §4, §5

The record followed here is patent publication US20250214998A1, “CYCLIC COMPOUNDS AS RECEPTOR MODULATING THERAPEUTICS AND METHODS AND USES THEREOF” (BIONOMICS LIMITED, priority 2018, published 2025).

Broadly, the Papp A→B is the apparent permeability from the apical to the basolateral side of a cell layer.

Consider `CCn1cc(C(=O)N2C[C@H]3C[C@@H]2CO3)c(=O)c2cc(OC3Cc4ccccc4C3)cnc21` (stereo in doubt) [Example 17, 1-Ethyl-6-indan-2-yloxy-3-[(1R,4R)-2-oxa-5-azabicyclo[2.2.1]heptane-5-carbonyl]-1,8-naphthyridin-4-one], for which, in data set [1], the Papp A→B at 60 min came out at 0.87 ×10⁻⁶ cm/s.

Consider `CCn1cc(C(=O)N2C3COCC2C3)c(=O)c2cc(OC3Cc4ccccc4C3)cnc21` [Example 16, 1-Ethyl-6-indan-2-yloxy-3-(3-oxa-6-azabicyclo[3.1.1]heptane-6-carbonyl)-1,8-naphthyridin-4-one], for which the “A2B Papp” value in the data set on MDCK-MDR1 cells is on record as 16 2.06 10^−6 cm/s.

Regarding `CCn1cc(C(=O)N2CC3(CCOCC3)C2)c(=O)c2cc(OC3Cc4ccccc4C3)cnc21` [Example 23, 1-Ethyl-6-indan-2-yloxy-3-(7-oxa-2-azaspiro[3.5]nonane-2-carbonyl)-1,8-naphthyridin-4-one], in the data set with MDCK-MDR1 cells, the “A2B Papp” value is 23 1.24 10^−6 cm/s.
